Reference: ChEMBL document CHEMBL4619803, “Stepwise Design of γ-Secretase Modulators with an Advanced Profile by Judicious Coordinated Structural Replacements and an Unconventional Phenyl Ring Bioisostere” (J Med Chem, 2020)
≈ marks a conversion by molar mass, not a printed value.

How the values were obtained:
Gamma-secretase = assay: Modulation of gamma secretase in human H4 cells over expressing human APP695 harboring K595N/M596L Swedish double mutant assessed as reduction in Abeta42 production after 24 hrs by Alphalisa assay; type: cell-based
[1] = Octanol/water distribution co-efficient, log D of the compound at pH 7.4; type: physicochemical
[2] = Solubility of compound by lyophilisation solubility assay; type: physicochemical
[3] = Fraction unbound in human plasma; type: ADME, cell-free
[4] = Fraction unbound in mouse plasma; type: ADME, cell-free
[5] = Modulation of mouse gamma secretase assessed as reduction in Abeta42 production
[6] = Clearance in human hepatocytes assessed per million cells; type: ADME, cell-based, Hepatocyte; conditions: read-out: CLH
[7] = Clearance in mouse hepatocytes assessed per million cells; type: ADME, cell-based, Hepatocyte; conditions: read-out: CLH
[8] = biological target: Phosphatidylinositol 4-kinase beta (Homo sapiens, UniProt Q9UBF8); assay: Binding affinity to PIK4CB (unknown origin); type: ADME
Chain of Phosphatidylinositol 4-kinase beta (Q9UBF8 whole entry): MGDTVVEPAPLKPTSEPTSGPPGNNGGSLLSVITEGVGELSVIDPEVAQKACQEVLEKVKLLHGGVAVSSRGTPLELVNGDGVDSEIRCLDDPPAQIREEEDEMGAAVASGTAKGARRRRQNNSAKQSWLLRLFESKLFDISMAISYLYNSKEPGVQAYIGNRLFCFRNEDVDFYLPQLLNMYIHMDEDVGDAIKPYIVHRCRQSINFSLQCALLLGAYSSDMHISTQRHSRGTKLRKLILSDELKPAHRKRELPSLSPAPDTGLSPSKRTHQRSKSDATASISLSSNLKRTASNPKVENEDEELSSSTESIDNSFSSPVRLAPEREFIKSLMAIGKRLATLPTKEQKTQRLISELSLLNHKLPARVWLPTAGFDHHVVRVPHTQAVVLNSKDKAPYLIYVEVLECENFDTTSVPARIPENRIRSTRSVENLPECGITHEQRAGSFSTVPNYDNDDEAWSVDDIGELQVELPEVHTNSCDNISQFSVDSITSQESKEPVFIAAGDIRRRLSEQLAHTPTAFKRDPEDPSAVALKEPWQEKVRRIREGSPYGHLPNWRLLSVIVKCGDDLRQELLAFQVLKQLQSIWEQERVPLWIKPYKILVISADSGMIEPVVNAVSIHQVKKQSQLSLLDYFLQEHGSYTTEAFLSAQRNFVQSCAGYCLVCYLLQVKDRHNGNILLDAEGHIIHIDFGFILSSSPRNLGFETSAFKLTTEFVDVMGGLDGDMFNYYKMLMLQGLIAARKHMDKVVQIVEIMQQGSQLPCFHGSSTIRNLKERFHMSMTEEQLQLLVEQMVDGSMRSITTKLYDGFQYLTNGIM

Row | IC50 (Gamma-secretase) [µM] | logD [1] | solubility [2] [µg/mL] | fraction unbound [3] | fraction unbound [4] | IC50 [5] [µM] | hepatocyte CLint [6] [µL/min/1e6 cells] | hepatocyte CLint [7] [µL/min/1e6 cells] | Kd [8] [µM] | Compound
1 | 0.014 | 3.76 to 3.9 | 0.2 to 1 (≈ 0.428 to 2.14 µM) | – | – | – | – | – | – | Cc1nsc(N2C[C@H]3CC[C@@H](C2)[C@@H]3Nc2nc3c(OCCCC(F)(F)F)cccn3n2)n1
2 | 0.061 | 3.3 | 102 (≈ 240 µM) | – | – | – | – | – | – | Cc1nsc(N2C[C@H]3CC[C@@H](C2)[C@@H]3Nc2nc3c(OC(F)(F)F)cccn3n2)n1
3 | 0.108 | 2.68 | 346 (≈ 791 µM) | – | – | – | – | – | – | Cc1nnc(N2C[C@H]3CC[C@@H](C2)[C@@H]3Nc2nc3c(OC(C)C(F)(F)F)cccn3n2)o1 (some centres undefined)
4 | 0.231 | 2.59 | 396 (≈ 1070 µM) | 0.12 | 0.16 | – | 10 | 27 | – | COc1cccn2nc(N[C@@H]3[C@@H]4CC[C@H]3CN(c3nc(C)ns3)C4)nc12
5 | 0.049 | 2.26 | 456 (≈ 1070 µM) | – | – | – | – | – | – | Cc1nsc(N2C[C@H]3CC[C@@H](C2)[C@@H]3Nc2nc3c(OCC4COC4)cccn3n2)n1
6 | 0.002 | 4.1 | 0.6 (≈ 1.18 µM) | 0.002 | – | 0.002 | 2 | 19 | 40 to 100 | Cc1cc(N2C[C@H]3CC[C@@H](C2)[C@@H]3Nc2nc3c(OCC(F)(F)F)ccc(C(F)(F)F)n3n2)sn1
7 | 0.007 | 4.1 | 11 (≈ 23.3 µM) | 0.02 | 0.032 | 0.003 | 4 | 34 | – | Cc1cc(N2C[C@H]3CC[C@@H](C2)[C@@H]3Nc2nc3c(OCC(F)(F)C(F)(F)F)cccn3n2)on1

The next lines start with the molecule.

Row | Compound | IC50 (Gamma-secretase) [µM] | logD [1] | solubility [2] [µg/mL] | fraction unbound [3] | fraction unbound [4] | IC50 [5] [µM] | hepatocyte CLint [6] [µL/min/1e6 cells] | hepatocyte CLint [7] [µL/min/1e6 cells] | Kd [8] [µM]
8 | Cc1noc(N2C[C@H]3CC[C@@H](C2)[C@@H]3Nc2nc3c(OCC(F)(F)C(F)(F)F)cccn3n2)n1 | 0.02 | 3.57 | 144 (≈ 304 µM) | 0.055 | 0.061 | 0.017 | 1 | 11 | –
9 | Cc1cc(N2C[C@H]3CC[C@@H](C2)[C@@H]3Nc2nc3c(O[C@@H](C)C(F)(F)F)cccn3n2)sn1 | 0.006 | 3.81 | 6.3 (≈ 13.9 µM) | 0.01 | 0.034 | – | 3.1 | 36 | 0.085
10 | Cc1nnc(N2C[C@H]3CC[C@@H](C2)[C@@H]3Nc2nc3c(OC(C)C(F)(F)F)ccc(C(F)(F)F)n3n2)o1 (some centres undefined) | 0.027 | 3.58 | 77 (≈ 152 µM) | 0.028 | 0.044 | 0.02 | 1 | 1.6 | > 40
11 | FC(F)(F)COc1cccn2nc(N[C@@H]3[C@@H]4CC[C@H]3CN(c3ccnc(C(F)(F)F)c3)C4)nc12 | 0.024 | 4.04 | 11 (≈ 22.6 µM) | 0.012 | 0.02 | 0.021 | 1 | 9 | 0.25
12 | Cc1nsc(N2C[C@H]3CC[C@@H](C2)[C@@H]3Nc2nc3c(OCCC(F)(F)F)cccn3n2)n1 | 0.014 | 3.36 | 1.7 (≈ 3.75 µM) | 0.03 | 0.0521 | – | 1.3 | 21 | –
13 | Cc1nsc(N2C[C@H]3CC[C@@H](C2)[C@@H]3Nc2nc3c(O[C@@H](C)C(F)(F)F)cccn3n2)n1 | 0.016 | 3.69 | 78 (≈ 172 µM) | 0.028 | 0.06 | – | 3.1 | 10 | –
14 | Cc1noc(N2C[C@H]3CC[C@@H](C2)[C@@H]3Nc2nc3c(OCC(F)(F)F)cccn3n2)n1 | 0.114 | 1.79 | 55 to 265 (≈ 130 to 626 µM) | – | 0.095 | > 0.4 | – | 4.6 | –
